Experimental findings from BindingDB's records for doi:10.1016/j.bmcl.2016.12.057 (University of Auckland, 2017) are described below.

This experiment in a line: Inhibition of recombinant perforin (unknown origin) assessed as decrease in lysis of 51Cr-labelled human Jurkat cells by measuring 51Cr release preincubated for 30 mins followed by cell line addition measured after 4 hrs in presence of 0.1% BSA by gamma counting method.

Bounds are passed on as bounds.

What is called IC50 is the midpoint of a concentration-inhibition curve.

For the compound `O=C1NCCc2cc(-c3ccc(-c4cncc(NS(=O)(=O)c5ccc(F)cc5F)c4)s3)ccc21`, the IC50 is above 20 µM.
To `CN1CCc2cc(-c3ccc(-c4cncc(NS(=O)(=O)c5ccc(F)cc5F)c4)s3)ccc2C1=O` belongs above 20 µM.
With `CN1Cc2cc(-c3nc(-c4cncc(NS(=O)(=O)c5ccc(F)cc5F)c4)cs3)ccc2C1=O`, the concentration for half-maximal inhibition (IC50) is above 20 µM.
Under `O=C1NCCc2ccc(-c3ccc(-c4cncc(NS(=O)(=O)c5ccc(F)cc5F)c4)s3)cc21` stands above 20 µM; under `CC1c2cc(-c3ccc(-c4cncc(NS(=O)(=O)c5ccc(F)cc5F)c4)s3)ccc2C(=O)N1C` (stereo not given), above 20 µM.
